row,melting point [°C],SMILES
1,201 to 202,"Cc1nc(-c2ccc3ccc(Cn4ccc5nc(C(C)C)n(Cc6ccc7ccc(-c8noc(C)n8)cc7c6)c5c4=O)cc3c2)no1 [BC2, 2-isopropyl-3-[7-(5-methyl[1,2,4]oxadiazol-3-yl)naphth-2-ylmethyl]-5-[7-(5-methyl[1,2,4]oxadiazol-3-yl)naphth-2-ylmethyl]-3,5-dihydroimidazo[4,5-c]pyridin-4-one]"
2,172 to 173,"Cc1nc(-c2ccc(Cn3ccc4nc(C(C)C)n(Cc5ccc6ccc(-c7noc(C)n7)cc6c5)c4c3=O)cc2)no1 [BC3, 2-isopropyl-3-[7-(5-methyl[1,2,4]oxadiazol-3-yl)naphth-2-ylmethyl]-5-[4-(5-methyl[1,2,4]oxadiazol-3-yl)benzyl]-3,5-dihydroimidazo[4,5-c]pyridin-4-one]"
3,149 to 150,"Cc1nc(-c2ccc3ccc(Cn4c(C(C)C)nc5ccn(Cc6ccccc6-c6noc(C)n6)c(=O)c54)cc3c2)no1 [BC4, 2-isopropyl-3-[7-(5-methyl[1,2,4]oxadiazol-3-yl)naphth-2-ylmethyl]-5-[2-(5-methyl[1,2,4]oxadiazol-3-yl)benzyl]-3,5-dihydroimidazo[4,5-c]pyridin-4-one]"
4,112 to 113,"Cc1nc(-c2ccc3ccc(Cn4c(C(C)C)nc5ccn(Cc6ccccc6)c(=O)c54)cc3c2)no1 [BC5, 2-isopropyl-3-[7-(5-methyl[1,2,4]oxadiazol-3-yl)naphth-2-ylmethyl]-5-benzyl-5H-imidazo[4,5-c]pyridin-4-one]"
